# Like-named read-outs stand apart in the source and are kept apart here.
# Tests used:
# [1] = tested on: Listeria innocua (ATCC 33090); type: cell-based
# [2] = tested on: Salmonella typhimurium (ATCC 14028); details: 25 g food matrix, 100 mL BPW media, inoculation 10 cfu/sample, 35° C. 24 hours, mean of two replicates
# Experimental: (§1) Individual inoculums were prepared by serially diluting each culture sample with Butterfield's Buffer (3M Company, St. Paul, Minn.). To determine the cell concentration (cfu/sample), a 1 mL aliquot of diluted sample was plated onto a […] Aerobic Count Plate (3M Company, St. Paul, Minn.), incubated, and counted according to the manufacturer's instructions. The counts (cfu) from the plates were used to calculate the final dilution required to achieve the targeted inoculum concentration.
# (§2) The inoculated sample was added to a WHIRL-PAK sterile sampling bag that contained 100 mL of Buffered Peptone Water enrichment media. […] The bag was closed and the sample was mixed for 30 seconds followed by incubation at 35° C. for 24 hours. A 10 mL aliquot of the media was removed and serially diluted with Demi Fraser media (3M Company, St. Paul, Minn.). A 100 microliter sample from the final dilution was plated onto an EZ-CHROM Salmonella Plus agar plate according to the manufacturer's instructions and the plate was incubated at 37° C. for 24 hours. Colonies (cfu) that formed were counted by visual inspection. The total colony count post enrichment was calculated by adjusting the observed plate count based on the number and volume of the dilutions. The recovery of Salmonella typhimurium (cfu/mL) after enrichment is reported in Table 1 as the mean value of two replicates.
# [3] = tested on: Listeria innocua (ATCC 33090); details: 25 g food matrix, 100 mL Demi Fraser media, inoculation 1.4 cfu/sample, 35° C. 24 hours, mean of two replicates
# Experimental: as §1
# as §2, with “Demi Fraser” for “Buffered Peptone Water”, “with fresh” for “with”, “media.” for “media (3M Company, St. Paul, Minn.).”, “a Modified Oxford (MOX)” for “an EZ-CHROM Salmonella Plus”, “dilutions.” for “dilutions. The recovery of Salmonella typhimurium (cfu/mL) after enrichment is reported in Table 1 as the mean value of two replicates.”
# [4] = salt in enrichment media 330 micromolar, 50 g food matrix, 200 mL Demi Fraser media, inoculation 3.7 cfu/sample, mean of two replicates
# [5] = salt in enrichment media 331 micromolar, 50 g food matrix, 200 mL Demi Fraser media, inoculation 3.7 cfu/sample, mean of two replicates
compound,measurement,setting,value
"[Cl-].[Cl-].[Zn+2] [ZnCl2, zinc chloride]",Recovery after Enrichment,"[1]; ZnCl2 45 mg/L, 50 g food matrix, 200 mL Demi Fraser media, inoculation 3.7 cfu/sample, 35° C. 24 hours, mean of two replicates",1 × 10^6 cfu/mL
same,Recovery after Enrichment,[1]; [4],1 × 10^6 cfu/mL
"O=S(=O)([O-])[O-].[Mg+2] [MgSO4, magnesium sulfate]",Recovery after Enrichment,"[1]; salt in enrichment media 332 micromolar, 50 g food matrix, 200 mL Demi Fraser media, inoculation 3.7 cfu/sample, mean of two replicates",1 × 10^5 cfu/mL
"[Ba+2].[Cl-].[Cl-] [BaCl2, barium chloride]",Recovery after Enrichment,[1]; [5],1 × 10^4 cfu/mL
"O.O.O.O.O.O.O.O=S(=O)([O-])[O-].[Fe+2] [FeSO4, ferrous sulfate heptahydrate]",Recovery after Enrichment,[2]; FeSO4 50 mg/L,1 × 10^6 cfu/mL
same,Recovery after Enrichment,[2]; FeSO4 500 mg/L,1 × 10^6 cfu/mL
same,Recovery after Enrichment,[2]; FeSO4 2000 mg/L,1 × 10^7 cfu/mL
same,Recovery after Enrichment,[3]; FeSO4 50 mg/L,1 × 10^5 cfu/mL
same,Recovery after Enrichment,[3]; FeSO4 500 mg/L,1 × 10^3 cfu/mL
same,Recovery after Enrichment,[3]; FeSO4 2000 mg/L,1 × 10^3 cfu/mL
ferric ammonium citrate [Example C6H11FeNO7],Recovery after Enrichment,[1]; [4],1 × 10^4 cfu/mL
"[Ca+2].[Cl-].[Cl-] [CaCl2, calcium chloride]",Recovery after Enrichment,[1],1 × 10^4 cfu/mL
ferric citrate [Example C6H5FeO7],Recovery after Enrichment,[1]; [5],1 × 10^4 cfu/mL

# Source: US20210277352A1, “ENRICHMENT SUPPLEMENT FOR ANTIMICROBAL MATRICES” (priority 2018, published 2021)
